Data on two compounds can be found in patent US20190233884A1 (University of Southern California, priority 2016, published 2019).

The structures appear in SMILES notation. Where a name gives a salt, the structure may show the parent alone. Read-outs that look alike come from different tables or passages of the source.

Series [1] in a line: clinical. The note with it: human, in vivo. The text has this:
Neither TPI renal clearance (CLren) nor or tubular secretory Clearance (CLsec) were associated with SNPs in MATE1 (rs2289669 or rs2252281) when tested individually (FIG. 8). […] (FIGS. 8-10). TPI is strongly associated with PFS and OS with regard to renal clearance difference by OCT2 and MATE1 gene-gene interaction.

The conditions of series [2]: cited from earlier work.

Consider `N=C1CCCN1Cc1[nH]c(=O)[nH]c(=O)c1Cl` [TPI, tipiracil hydrochloride], for which the Clrenal in series [1] was 29.6 L/h. Moreover, the CL renal in series [1] (Clrenal) is 555 mL/min.
In the case of `CN(C)C(=N)N=C(N)N` [metformin, N,N-Dimethylimidodicarbonimidic diamide], in series [2] (healthy volunteers, OCT2 rs316019 heterozygote or homozygote along with MATE1 rs225281 heterozygote), the “CLrenal and CLsec” value was “significantly lower”. Further, in series [2] (stratum 3 (MATE1 WT and OCT2 HM) compared with stratum 1 (MATE1 WT and OCT2 WT)), the Clrenal result is listed as “relatively higher”.
